Results from patent US20220358646A1, “CELL ACTIVITY MACHINE LEARNING” (Q-STATE BIOSCIENCES, INC., priority 2021, published 2022).

Experiments:
[1] = test system: E18 rat hippocampal neurons; test: Optopatch functional phenotypes of compounds in cultured neurons; assay type: cell-based; conditions: normalized to control vehicle, 14 days culture
Method: E18 rat hippocampal neurons were cultured for 14 days and caused to express Optopatch proteins as described in Example 1. The cells were stimulated in the presence of XE-991 (a Kv7.x blocker), ML-213 (a Kv7.x opener), a-Dendrotoxin (a Kv1.x blocker), OXO-M (a muscarinic agonist), 4AP (a promiscuous Kv blocker), Isradipine (a Cav1.x blocker), or a control vehicle. FIG. 26 provides radar plots representing generated functional phenotypes indicative of the drug-induced changes in neuronal spiking behavior along many dimensions. The action potential feature values were normalized to those for the cells simulated in the presence of the control vehicle. As shown in the radar plots, each compound provided a discernable and unique functional phenotype. […] FIG. 27 provides concentration response curves for the cells in the presence of varied concentrations of the compounds. Each symbol represents >100 cells in one well and all measurements were obtained in a single day. Thus, the present systems and methods can not only elucidate therapeutic responses of various compounds, but also show concentration-dependent responses. Moreover, as the measurements were taken in a single day, the presently disclosed systems and methods enable fast, high-throughput drug screening.

[2] = test system: iPSC-derived excitatory cortical neurons (NGN2) with loss of function knockout; test: Optopatch functional phenotype reversal in knockout (KO) disease-model neurons versus wildtype control; assay type: cell-based, human; conditions: for cell behavior projected onto phenotype/side effect space: KO cells, 8 concentrations from 0.28 to 600 μM, two replicates; for reversal of disease-model functional phenotype (radar plot of action potential features): KO disease-model cells stimulated in presence of compound, normalized to control cells
Method: In this example, iPSC-derived excitatory cortical neurons (NGN2) were grown for 30 days in a culture. The neurons expressed Optopatch proteins as described in Example 1. Two sets of neurons were grown. The first was a wildtype control line.
The cells were stimulated using blue light as described in Example 1 and their action potentials recorded as voltage traces. Recordings were made of the control cells and disease-model cells when stimulated in the absence of any test compound. Recordings were also made of the disease-model cells when stimulated in the presence of the promiscuous potassium channel blocker 4-AP and the promiscuous sodium channel blocker lamotrigine.
FIG. 23 provides radar plots representing functional phenotypes generated by a machine learning system using action potential features extracted from the recorded action potentials when the cells were stimulated by blue light. The values for the features are normalized to the control cell recordings. […] The differences in the recorded traces, select features of which are provided on the radar plots, show the functional phenotype of the disease-model.
FIG. 24 is a diagram illustrating phenotype reversal and “side effects” described by mapping extracted action potential features on the ˜300-dimensional space of recorded parameters, only two of which are shown. Extracted features for the control cell (WT) wells (green) are clustered as are those for the KO cells (red). The vector between these populations represents the phenotype (red). Drug effects (blue) are deconstructed into components along (phenotype reversal) and orthogonal to (side effects) the phenotype vector. An ideal drug would undo the effects of the mutation and move the well from the KO cluster to the control cell cluster.
FIG. 25 is a plot showing many wells projected onto the phenotype/side effect space. WT and KO wells are well separated along the phenotype direction. Application of the two compounds (8 concentrations from 0.28 to 600 μM) from FIG. 25 have increasing effects on KO cell behavior as the concentration increases. […] The connected drug points are in order of increasing concentration, and the two lines are experimental replicates on two consecutive weeks of experiment.

[3] = test system: E18 rat hippocampal neurons; test: Optopatch 96-well plate firing assay, alternating columns compound/vehicle; assay type: cell-based; conditions: ML-213 at 1 μM versus vehicle wells
Method: E18 rat hippocampal neurons were cultured for 14 days and caused to express Optopatch proteins as described in Example 1. The cells were placed in wells of a 96-well plate. ML-213 at 1 μM was added to alternating columns of the plate and a control vehicle added to the remaining columns. The cells in all wells were stimulated and their action potentials recorded using a microscope as described in Example 1.
FIG. 30 provides the average firing rate during the blue light stimulus ramp for each well.
FIG. 32 provides a plot of the average number of spikes recorded for individual cells in each well during the blue light stimulus ramp.

[4] = test system: hiPSC-derived motor neurons; test: Optopatch optical stimulation and voltage recording of hiPSC-derived motor neurons before and after compound addition; assay type: cell-based, human
Description: Human induced pluripotent stem cells (hiPSC) were differentiated into hiPSC-derived motor neurons. The cells expressed an optogenetic proteins from the Optopatch toolkit (optical stimulation plus optical voltage reporting, e.g., CheRiff & QuasAr), which allows simultaneous optical stimulation and recording of neuronal action potentials.
The channelrhodopsin CheRiff enables action potential stimulation with blue light and the voltage-sensitive fluorescent protein QuasAr enables high-speed electrical recordings with red light. A microscope, as disclosed herein, obtained simultaneous voltage recordings from >100 individual neurons over a large (0.5×4 mm) field of view (FOV) with 1 ms temporal resolution and high signal-to-noise ratio (SNR). A digital micromirror device (DMD) in the microscope projected a fully reconfigurable optical pattern to sequentially stimulate cells while recording from many post-synaptic partners. […]
In every trace the spikes were detected and the key spike shape and timing parameters were computed. […]
Pixels in the recording that captured fluorescence from the reporters of membrane potential in each neuron co-varied in time following that cell's unique firing pattern. […] Each FOV was recorded twice, before and after addition of potassium channel opener ML-213. […]

SMILES | drug-induced changes in neuronal spiking behavior (functional phenotype) [1] | cell behavior projected onto phenotype/side effect space [2] | reversal of disease-model functional phenotype (radar plot of action potential features) [2] | average firing rate during the blue light stimulus ramp [3] | neuronal excitability ([4]; 1 μM ML-213, same neurons before and after addition, blue light stimulus) | resting potential and action potential firing ([4]; hiPSC-derived motor neurons)
O=C1c2ccccc2C(Cc2ccncc2)(Cc2ccncc2)c2ccccc21 [XE-991] | drove cellular response, as expected | – | – | – | – | –
Nc1nnc(-c2cccc(Cl)c2Cl)c(N)n1 [lamotrigine] | – | moves behavior away from both WT and KO | perturbed behavior but did not reverse the phenotype | – | – | –
Nc1ccncc1 [4-AP] | – | moves cell behavior toward and beyond WT behavior | substantially reversed the phenotype | – | – | –
Cc1cc(C)c(NC(=O)C2CC3CCC2C3)c(C)c1 (stereo not drawn) [ML-213] | drove cellular response, as expected | – | – | dramatically reduces firing rate | clear reduction in neuronal excitability | lowers resting potential and suppresses action potential firing
